The record followed here is ChEMBL document CHEMBL4376865, “Discovery and Characterization of 1H-1,2,3-Triazole Derivatives as Novel Prostanoid EP4 Receptor Antagonists for Cancer Immunotherapy” (J Med Chem, 2020).

One series has as its target Cytochrome P450 3A4 (Homo sapiens, UniProt P08684). In words: Inhibition of CYP3A4 in human liver microsomes at 20 uM using testosterone as substrate incubated for 60 mins by HPLC analysis. Format: ADME. As to conditions: 1 h; call rule not given here. Background: Liver microsomes are vesicles of endoplasmic reticulum, rich in cytochrome P450 enzymes.
For series [1], the target named is T1, Prostaglandin E2 receptor EP4 subtype (Homo sapiens, UniProt P35408). In words: Inhibition of human EP4 transfected in human HEK293 cells assessed as reduction in PGE2-induced cAMP level incubated for 15 mins followed by PGE2 stimulation and measured every 2 mins for 30 mins by GloSensor cAMP Assay. Background: Changes in cAMP serve as a functional read-out for many G protein-coupled receptors.

Series [2] addresses T1, Prostaglandin E2 receptor EP4 subtype. The experiment in a line: Inhibition of human EP4 transfected in human HEK293 cells co transfected with SmBit-beta-arrestin. assessed as reduction in PGE2 induced-beta-arrestin recruitment by NanoBiT beta-arrestin recruitment assay. Background: Activated receptors often draw arrestin, which recruitment assays turn into a signal.
A further series has as its target T2, CYP2B6 (Homo sapiens, UniProt P20813).
T2 sequence (P20813 whole entry): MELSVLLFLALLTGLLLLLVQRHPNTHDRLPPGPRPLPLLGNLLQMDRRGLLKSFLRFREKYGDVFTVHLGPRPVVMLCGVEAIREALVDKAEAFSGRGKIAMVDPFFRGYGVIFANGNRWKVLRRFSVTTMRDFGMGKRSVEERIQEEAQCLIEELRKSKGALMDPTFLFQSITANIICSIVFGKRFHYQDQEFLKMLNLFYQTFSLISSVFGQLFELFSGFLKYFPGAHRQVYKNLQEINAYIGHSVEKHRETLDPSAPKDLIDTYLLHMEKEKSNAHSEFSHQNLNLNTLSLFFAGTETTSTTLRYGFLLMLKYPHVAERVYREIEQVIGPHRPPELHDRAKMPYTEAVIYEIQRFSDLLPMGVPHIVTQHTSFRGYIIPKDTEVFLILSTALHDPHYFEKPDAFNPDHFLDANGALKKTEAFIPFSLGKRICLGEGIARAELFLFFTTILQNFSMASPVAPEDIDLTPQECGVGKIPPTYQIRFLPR
In words: Inhibition of CYP2B6 in human liver microsomes at 20 uM incubated for 60 mins by HPLC analysis relative to control. Format: ADME.

The target of series [3] is Prostaglandin E2 receptor EP2 subtype (Homo sapiens, UniProt P43116).
Description: Antagonist activity at human EP2 expressed in CHO cells coexpressing G16-alpha assessed as intracellular calcium flux preincubated for 15 mins followed by addition of PGE2 by calcium flux assay
Series [4] deals with T3, Prostaglandin E2 receptor EP1 subtype (Homo sapiens, UniProt P34995).
T3 sequence (P34995 whole entry): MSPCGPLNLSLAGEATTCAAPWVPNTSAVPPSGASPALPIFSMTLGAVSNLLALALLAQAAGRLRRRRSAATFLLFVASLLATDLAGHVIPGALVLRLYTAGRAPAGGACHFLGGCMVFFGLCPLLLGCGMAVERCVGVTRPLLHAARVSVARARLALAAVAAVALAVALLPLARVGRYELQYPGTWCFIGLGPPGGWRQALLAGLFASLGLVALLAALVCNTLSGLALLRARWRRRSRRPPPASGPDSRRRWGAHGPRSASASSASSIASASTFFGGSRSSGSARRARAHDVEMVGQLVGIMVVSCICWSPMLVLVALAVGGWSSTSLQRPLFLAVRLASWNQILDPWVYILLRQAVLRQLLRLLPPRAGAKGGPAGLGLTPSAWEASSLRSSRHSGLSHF
In words: Antagonist activity at human EP1 expressed in CHO cells coexpressing G16-alpha assessed as intracellular calcium flux preincubated for 15 mins followed by addition of PGE2 by calcium flux assay. Format: functional, cell-based.

The nature of another series: in vivo. Particulars: BALB/c, mouse, po, 5 mg/kg.

T1 sequence (P35408 whole entry): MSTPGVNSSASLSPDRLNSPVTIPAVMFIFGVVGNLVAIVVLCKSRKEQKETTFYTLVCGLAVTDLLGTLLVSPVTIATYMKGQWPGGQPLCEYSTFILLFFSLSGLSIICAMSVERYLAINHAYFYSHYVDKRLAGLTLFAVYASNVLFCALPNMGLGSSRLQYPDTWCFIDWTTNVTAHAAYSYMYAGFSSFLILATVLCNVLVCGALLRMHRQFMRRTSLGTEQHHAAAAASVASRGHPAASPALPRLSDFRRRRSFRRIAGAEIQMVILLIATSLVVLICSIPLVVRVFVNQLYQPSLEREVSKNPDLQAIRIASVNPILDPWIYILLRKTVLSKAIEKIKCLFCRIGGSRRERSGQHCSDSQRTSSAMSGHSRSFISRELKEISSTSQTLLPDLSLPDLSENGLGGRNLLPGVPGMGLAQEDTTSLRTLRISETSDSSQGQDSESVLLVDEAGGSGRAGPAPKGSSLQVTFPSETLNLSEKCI
Sequence of Prostaglandin E2 receptor EP2 subtype (P43116 whole entry): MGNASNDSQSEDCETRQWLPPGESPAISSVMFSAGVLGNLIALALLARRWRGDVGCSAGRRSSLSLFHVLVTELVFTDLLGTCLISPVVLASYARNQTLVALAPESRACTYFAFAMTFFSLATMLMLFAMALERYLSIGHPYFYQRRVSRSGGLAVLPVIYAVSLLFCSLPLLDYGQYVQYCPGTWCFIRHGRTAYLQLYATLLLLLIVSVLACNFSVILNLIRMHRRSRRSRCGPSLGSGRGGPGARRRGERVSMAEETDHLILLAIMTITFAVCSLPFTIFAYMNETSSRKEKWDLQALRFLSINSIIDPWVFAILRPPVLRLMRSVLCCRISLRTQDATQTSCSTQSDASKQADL
Sequence of Cytochrome P450 3A4 (P08684 whole entry): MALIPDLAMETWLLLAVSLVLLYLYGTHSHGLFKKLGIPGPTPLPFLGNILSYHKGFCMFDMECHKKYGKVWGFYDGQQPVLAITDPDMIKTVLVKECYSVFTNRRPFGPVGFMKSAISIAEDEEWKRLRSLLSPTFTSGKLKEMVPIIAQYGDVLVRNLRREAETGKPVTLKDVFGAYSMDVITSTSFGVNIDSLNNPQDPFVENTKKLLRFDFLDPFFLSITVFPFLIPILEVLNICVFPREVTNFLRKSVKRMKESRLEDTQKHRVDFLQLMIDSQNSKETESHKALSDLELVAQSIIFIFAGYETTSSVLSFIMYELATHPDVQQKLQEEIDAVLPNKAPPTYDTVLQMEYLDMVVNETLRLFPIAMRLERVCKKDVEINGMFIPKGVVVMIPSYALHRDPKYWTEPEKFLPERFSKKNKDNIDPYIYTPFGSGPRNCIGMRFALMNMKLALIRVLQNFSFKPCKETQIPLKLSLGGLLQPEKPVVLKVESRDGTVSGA
Description for in vivo: Cmax in BALB/c mouse at 5 mg/kg, po measured upto 24 hrs by LC-MS/MS analysis

One may read the IC50 as the concentration needed to halve the response being measured. One may read the inhibition as the change of the read-out against control, counted positive when it falls. The low end stands for a weak effect, the high end for a strong effect. Broadly, the Cmax is the peak of the concentration-time curve. On to `C/C=C/c1nnn(Cc2ccc(C(F)(F)F)cc2)c1C(=O)N[C@@H](C)c1ccc(C(=O)O)cc1`, for which the “inhibition (INH)” value against Cytochrome P450 3A4 is “Not Active”. Moreover, the IC50 in series [1] was 0.0187 µM; in series [2], 0.0004 µM; in series [3], > 10 µM; in series [4] it was > 10 µM. In addition, the Kb in series [1] was 0.00562 µM. On CYP2B6, this molecule showed an inhibition at 1 h, 20 µM of 26%. The same molecule showed a Cmax at 24 h in the series “in vivo” of 194 ng/mL.
